ChEMBL document CHEMBL4477252, “Optimization of microtubule affinity regulating kinase (MARK) inhibitors with improved physical properties” (Bioorg Med Chem Lett, 2016)
Converted amounts (≈) assume the structure as drawn.

Columns and labels:
[1] = target: MAP/microtubule affinity-regulating kinase 3 (Homo sapiens, UniProt P27448); experiment: Inhibition of full-length recombinant human GST-tagged MARK3 expressed in baculovirus expression system using biotinylated-Cdc25C peptide substrate measured after 2 hrs by HTRF assay
[2] = target: MDR1 (ABCB1, P-glycoprotein) (Homo sapiens, UniProt P08183); experiment: Substrate activity at human MDR1 expressed in LLC-PK1 cells assessed as efflux ratio of permeability across basolateral to apical over apical to basolateral side at 5 uM; assay type: ADME, cell-based
[3] = Solubility of the compound at pH 7; assay type: physicochemical; conditions: buffer
[4] = Clearance in Sprague-Dawley rat at 1 mL/kg, iv administered through catheter measured after 24 hrs by LC-MS/MS analysis; assay type: ADME, organism-based; conditions: in vivo

MDR1 (ABCB1, P-glycoprotein), sequence (P08183 whole entry): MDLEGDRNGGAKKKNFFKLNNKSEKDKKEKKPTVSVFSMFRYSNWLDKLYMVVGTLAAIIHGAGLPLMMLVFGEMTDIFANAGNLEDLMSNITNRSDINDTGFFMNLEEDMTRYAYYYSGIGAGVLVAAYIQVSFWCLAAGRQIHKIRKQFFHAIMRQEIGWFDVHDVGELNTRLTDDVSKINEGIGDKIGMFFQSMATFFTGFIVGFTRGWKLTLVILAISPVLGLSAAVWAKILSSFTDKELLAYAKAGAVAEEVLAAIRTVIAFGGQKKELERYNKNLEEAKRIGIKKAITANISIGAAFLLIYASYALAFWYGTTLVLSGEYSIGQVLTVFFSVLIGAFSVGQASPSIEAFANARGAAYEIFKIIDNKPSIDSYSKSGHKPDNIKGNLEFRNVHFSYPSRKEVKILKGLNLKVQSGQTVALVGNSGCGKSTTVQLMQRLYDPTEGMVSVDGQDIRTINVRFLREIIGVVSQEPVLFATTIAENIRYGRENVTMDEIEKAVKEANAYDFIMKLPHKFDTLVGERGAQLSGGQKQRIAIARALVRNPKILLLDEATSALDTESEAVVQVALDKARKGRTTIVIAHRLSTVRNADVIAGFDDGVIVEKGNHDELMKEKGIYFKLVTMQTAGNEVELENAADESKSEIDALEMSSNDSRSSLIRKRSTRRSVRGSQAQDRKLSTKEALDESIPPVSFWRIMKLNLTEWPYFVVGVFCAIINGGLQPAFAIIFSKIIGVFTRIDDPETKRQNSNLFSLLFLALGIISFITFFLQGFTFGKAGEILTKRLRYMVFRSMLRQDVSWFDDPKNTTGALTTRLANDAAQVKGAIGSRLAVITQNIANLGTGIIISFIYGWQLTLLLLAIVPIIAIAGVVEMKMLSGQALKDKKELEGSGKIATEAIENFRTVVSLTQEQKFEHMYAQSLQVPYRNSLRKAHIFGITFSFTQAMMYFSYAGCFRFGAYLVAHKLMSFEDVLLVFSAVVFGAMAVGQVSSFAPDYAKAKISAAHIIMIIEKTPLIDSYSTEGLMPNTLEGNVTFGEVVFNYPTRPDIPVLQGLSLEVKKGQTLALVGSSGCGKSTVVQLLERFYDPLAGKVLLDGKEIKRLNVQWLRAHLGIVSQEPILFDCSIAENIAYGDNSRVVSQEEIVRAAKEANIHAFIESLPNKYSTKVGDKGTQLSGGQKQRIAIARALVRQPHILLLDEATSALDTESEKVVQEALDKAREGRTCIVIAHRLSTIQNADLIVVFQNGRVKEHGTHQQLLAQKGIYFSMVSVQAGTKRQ
MAP/microtubule affinity-regulating kinase 3, sequence (P27448 whole entry): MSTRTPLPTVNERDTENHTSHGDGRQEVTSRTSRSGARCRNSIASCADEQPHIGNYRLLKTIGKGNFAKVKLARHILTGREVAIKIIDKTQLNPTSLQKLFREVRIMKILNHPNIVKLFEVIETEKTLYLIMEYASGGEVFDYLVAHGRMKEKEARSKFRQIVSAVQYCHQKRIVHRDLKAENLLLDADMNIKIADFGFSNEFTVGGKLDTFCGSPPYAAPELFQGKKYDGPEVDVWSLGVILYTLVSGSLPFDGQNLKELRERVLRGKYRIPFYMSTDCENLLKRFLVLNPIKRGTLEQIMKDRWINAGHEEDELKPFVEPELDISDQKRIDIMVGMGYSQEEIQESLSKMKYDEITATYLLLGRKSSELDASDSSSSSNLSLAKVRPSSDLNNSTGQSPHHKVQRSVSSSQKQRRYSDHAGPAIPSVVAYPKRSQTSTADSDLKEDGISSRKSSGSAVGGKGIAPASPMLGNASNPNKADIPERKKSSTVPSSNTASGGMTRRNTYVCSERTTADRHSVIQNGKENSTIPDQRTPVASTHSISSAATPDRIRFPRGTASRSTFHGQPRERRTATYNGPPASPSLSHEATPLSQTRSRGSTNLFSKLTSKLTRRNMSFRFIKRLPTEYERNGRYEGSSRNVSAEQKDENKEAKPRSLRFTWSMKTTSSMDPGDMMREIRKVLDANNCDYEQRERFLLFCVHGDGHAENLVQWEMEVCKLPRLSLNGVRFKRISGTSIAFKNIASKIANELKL

Row | IC50 [1] [µM] | efflux ratio at 5 µM [2] | solubility [3] [µM] | clearance [4] [mL/min/kg] | SMILES
1 | 0.099 |  |  |  | O=C(NCC(F)(F)F)c1cc(-c2cnn3cc(-c4cn[nH]c4)cnc23)cs1
2 | 0.013 |  |  |  | Cn1cnc(-c2cnc3c(-c4csc(C(=O)NCC(F)(F)F)c4)cnn3c2)c1
3 | 0.07 |  |  |  | O=C(NCC(F)(F)F)c1cc(-c2cnn3cc(-c4cccnc4)cnc23)cs1
4 | 0.0024 | 10 | 200 (≈ 78.3 µg/mL) |  | Cc1sc(C(=O)N[C@@H]2[C@H](N)CCCC2(F)F)cc1-c1cnn2cccnc12
5 | 0.129 |  |  |  | CCNC(=O)c1cc(-c2cnn3cc(-c4cnn(C)c4)cnc23)cs1
6 | 0.13 |  |  |  | Cc1sc(C(=O)N[C@H]2CCCC(F)(F)[C@H]2N)cc1-c1cnn2cc(-c3cnn(C)c3)cnc12
7 | < 0.00025 |  | 31 (≈ 14.6 µg/mL) |  | Cc1sc(C(=O)N[C@@H]2[C@H](N)CCCC2(F)F)cc1-c1cnn2cc(-c3cnn(C)c3)cnc12
8 | 0.01 | 4.8 |  | 14 | Cn1cc(-c2cnc3c(-c4csc(C(=O)NCCC(N)C(F)(F)F)c4)cnn3c2)cn1 (stereo not drawn)
9 | 0.009 |  |  |  | Cn1cc(-c2cnc3c(-c4csc(C(=O)NC(CO)C5CC5)c4)cnn3c2)cn1 (stereo not drawn)
10 | 0.015 | 11.5 |  | 16.7 | Cn1cc(-c2cnc3c(-c4csc(C(=O)NCCC(N)C(F)F)c4)cnn3c2)cn1 (stereo not drawn)
11 | 0.022 | 16.7 |  |  | Cn1cc(-c2cnc3c(-c4csc(C(=O)NCCC(N)CF)c4)cnn3c2)cn1 (stereo not drawn)
12 | 0.005 |  |  |  | COCCOc1ccc(-c2cnc3c(-c4csc(C(=O)NCC(F)(F)F)c4)cnn3c2)cc1
13 | 0.024 |  | 6 |  | Cn1cc(-c2cnc3c(-c4csc(C(=O)N[C@@H]5CCCC[C@H]5O)c4)cnn3c2)cn1 (mixture of isomers)
14 | 0.002 |  | 69 (≈ 28.1 µg/mL) |  | Cn1cc(-c2cnc3c(-c4csc(C(=O)N[C@@H]5CCC[C@@H]5N)c4)cnn3c2)cn1 (racemic)
15 | 0.001 |  | 193 (≈ 81.4 µg/mL) |  | Cn1cc(-c2cnc3c(-c4csc(C(=O)N[C@@H]5CCCC[C@H]5N)c4)cnn3c2)cn1 (racemic)
16 | 0.01 |  |  |  | Cn1cc(-c2cnc3c(-c4csc(C(=O)N[C@@H]5CCC[C@H]5O)c4)cnn3c2)cn1 (racemic)
17 | 0.0013 |  | 192 (≈ 83.6 µg/mL) |  | Cc1sc(C(=O)N[C@@H]2CCCC[C@@H]2N)cc1-c1cnn2cc(-c3cnn(C)c3)cnc12 (racemic)
18 | 0.003 |  | 203 (≈ 82.7 µg/mL) |  | Cn1cc(-c2cnc3c(-c4csc(C(=O)N[C@@H]5CCC[C@H]5N)c4)cnn3c2)cn1 (racemic)
19 | 0.009 |  |  |  | Cn1cc(-c2cnc3c(-c4csc(C(=O)N[C@@H]5CCCC[C@@H]5O)c4)cnn3c2)cn1 (racemic)
20 | 0.043 |  |  |  | Cn1cc(-c2cnc3c(-c4csc(C(=O)N[C@@H]5CCC[C@@H]5O)c4)cnn3c2)cn1 (racemic)
